In patent US20240293405A1, “(1H-PYRROLO[2,3-B]PYRIDIN-1-YL)PYRIMIDIN-2-YL-AMINO-PHENYL-ACRYLAMIDE INHIBITORS OF EGFR FOR USE IN THE TREATMENT OF BRAIN TUMORS” (Dana-Farber Cancer Institute, Inc., priority 2021, published 2024):
“And” between values parts separate entries of the source, which are not always exact repeats. Identical values can stand only once. Like-named read-outs stand apart in the source and are kept apart here.

Experiments:
[1] = tested on: 468 human kinases and disease relevant mutant variants; assay: Kinase selectivity binding panel (468 kinases); conditions: 468 kinase panel, 1 μM free base
Description: Compound 1 and Compound 2 (major metabolite) were evaluated in a panel of 468 human kinases and disease relevant mutant variants. Compound 1 and Compound 2 bound to few non-mutant kinases at <1% of control. […] While there is some variability between Compound 1 and Compound 2, it is clear that both compounds are very effective at binding to a large panel of mutant kinases. […] Binding constant to wild type EGFR was 4.9 nM.

293-EGFRvIII cells = assay: Cell viability of 293-EGFRvIII cells (CellTiter-Glo); type: cell-based, human; conditions: for IC50: Homo sapiens, read-out: IC50, viability of 293-EGFRvIII cells
Description: Cells were seeded in 96-well plates at a density of 1,000 cells per well and treated with two-fold serial dilutions of compounds with a starting concentration of 20 μM. Cell viability was assessed after three days of treatment by CellTiter-Glo (Promega). Curve fitting analysis and IC50 value determination were performed using GraphPad Prism 8.

[2] = tested on: broad human receptor profile; assay: Receptor selectivity screen; type: binding; conditions: 10 μM free base
Description: Compound 1 and/or Compound 2 (active/major metabolite) were evaluated for off-target activity in a large panel of receptors and ion channels, including a human ether-i-go-go-related gene (hERG) assay. Compound 1 was assessed comprehensively in Good Laboratory Practice (GLP) safety pharmacology studies, including studies of cardiovascular, respiratory and central nervous system function.

[3] = In vivo metabolite identification; parameters: species or system rat, dog and monkey
From the text: In in vivo studies in rat, dog and monkey, 35 metabolites were identified. The major circulating compound in all species was parent compound; parent was also a major component in rat feces. Compound 2, demethylated metabolite, was a major active metabolite in all species in plasma and in rat feces. M34, glutathione conjugation and hydrolysis and acetylation metabolite, was a major metabolite in rat urine. Compound 1 was extensively metabolized during excretion with 31 metabolites in rat urine and 32 metabolites in rat feces.

[4] = Plasma, brain and lung levels after 7 days oral dosing; type: in vivo, Sprague Dawley Rats; conditions: Sprague Dawley, rat, 24 hrs after last dosing
CYP3A4-T = target: T1, CYP3A4-T (Homo sapiens, UniProt P08684); assay: CYP450 inhibition, human liver microsomes; type: in vitro ADME
T1 construct: from tissue; host or cells: human liver microsomes
From the text: (§1) Metabolism, inhibition and induction were not observed with other CYPs. Potential DDI interactions exist with drugs that are inhibitors of CYP3A4-T or those metabolized by CYP3A4/3A5; these DDI risks will be better defined once there are human pharmacokinetics (PK) data.

CYP3A4 = assay: CYP 1A2, 2B6 and 3A4 induction, human hepatocytes; type: in vitro ADME
From the text: as §1

[5] = Brain and plasma exposure after single oral dose; type: in vivo, Sprague Dawley rats; conditions: Compound 1 30 mg/kg PO, 30 mg/kg; for concentration at 7 h / Kp at 7 h / concentration at 3 h: Sprague Dawley, rat, po; for Kp at 7 h: read-out: Brain/Plasma (ratios)
[6] = CNS functional observational battery; type: in vivo; conditions: rat, PO up to 100 mg/kg
[7] = Oral dog 4-week toxicity study with toxicokinetics; type: in vivo, beagle dogs; conditions: for HNSTD: 4-week oral
Description: Compound 1 (0, 10, 30, and 100 mg/kg/day) was given orally, once daily by gavage, to male and female beagle dogs (4/sex) for up to 28 days. […] The cause of death in this high-dose male was attributed to myocardial degeneration. This lesion was not observed in any other dog on study. Increases in alkaline phosphatase, globulin, cholesterol, triglycerides and fibrinogen and decreased reticulocyte counts noted in the high-dose group at mid-study returned towards baseline by the end of the study following 11/12 days of recovery. Testicular changes at all doses (seminiferous epithelial vacuolation at 10 and 30 mg/kg and degeneration/atrophy at 100 mg/kg) were not reversible in this short-term study; the reversibility period was not long enough to assess reversibility of testicular changes.
The increases were generally dose-proportional or greater-than dose-proportional on Day 1 and Day 28. Gender difference was not observed. No significant accumulation of Compound 1 or Compound 2 was observed.
Thirty-two beagle dogs (conventional, naive) were divided into four groups. Each group consists of four male and four female. Group 1 beagle dogs were administered vehicle and groups 2-4 beagle dogs were administered Compound 1 at 10 mg/kg, 30 mg/kg, and 100 mg/kg, respectively, by oral gavage once daily for 28 consecutive days (Table 15). […] Cmax (ng/mL) and AUClast (hr*ng/mL) of Compound 1 on day 1 were obtained for groups 2-4 (Table 15).

BT333 cells = assay: Cell viability, patient-derived GBM line BT333; conditions: Homo sapiens, 72 h
Description: (§2) Primary human glioblastoma lines BT112, BT179 and BT333 were maintained in NeuroCult proliferation medium (human) (StemCell Technologies) with 20 ng/ml EGF, 10 ng/ml FGF and 0.0002% Heparin.

BT112 cells = assay: Cell viability, patient-derived GBM line BT112; conditions: Homo sapiens, 72 h
Description: as §2

[8] = both sexes, beagle, in vivo, dog, day 1, oral gavage

T1 sequence (P08684 whole entry): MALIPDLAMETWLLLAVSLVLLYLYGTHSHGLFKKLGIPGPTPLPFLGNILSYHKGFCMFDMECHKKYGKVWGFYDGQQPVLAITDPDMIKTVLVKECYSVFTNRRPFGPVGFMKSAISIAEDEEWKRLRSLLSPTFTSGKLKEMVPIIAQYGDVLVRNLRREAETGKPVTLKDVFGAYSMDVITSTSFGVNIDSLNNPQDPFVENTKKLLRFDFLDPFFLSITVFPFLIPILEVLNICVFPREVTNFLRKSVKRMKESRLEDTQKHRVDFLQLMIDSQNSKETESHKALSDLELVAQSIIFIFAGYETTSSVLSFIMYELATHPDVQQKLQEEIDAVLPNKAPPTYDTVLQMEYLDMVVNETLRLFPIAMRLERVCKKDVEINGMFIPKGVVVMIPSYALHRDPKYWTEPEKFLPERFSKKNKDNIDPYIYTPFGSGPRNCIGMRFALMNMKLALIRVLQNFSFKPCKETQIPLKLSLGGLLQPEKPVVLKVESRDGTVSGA

## C=CC(=O)Nc1cc(Nc2nccc(-n3ccc4cccnc43)n2)c(OC)cc1N(C)CCN(C)C [Compound 1, N-(5-((4-(1H-pyrrolo[2,3-b]pyridin-1-yl)pyrimidin-2-yl)amino)-2-((2-(dimethylamino)ethyl)(methyl)amino)-4-methoxyphenyl)acrylamide]
[1]
  targeted non-mutant kinases (bound at <1% of control): MAST1, PAK4, PDGFRB and ULK3
293-EGFRvIII cells; HEK293-EGFRvIII cells
  fold more active than erlotinib (viability): 3 fold
  fold more active than gefitinib (viability): 10 fold
293-EGFRvIII cells; 72 h, 3 days treatment, CellTiter-Glo
  IC50: 1480 nM
293-EGFRvIII cells; unit as printed in b643 for Compound 1
  IC50: 1480 nM
[2]
  off-target risk from receptor binding studies: little off-target risk
[3]; in vivo
  number of metabolites in rat feces: 32
  number of metabolites in rat urine: 31
[3]; rat, dog and monkey
  number of metabolites identified in vivo: 35
[4]; brain, 10 mg/kg po qd 7 days, Female, read-out: Brain
  concentration at 24 h: 39.8 ng/g
[4]; brain, 10 mg/kg po qd 7 days, Male, read-out: Brain
  concentration at 24 h: 14.9 ng/g
[4]; brain, 50 mg/kg po qd 7 days, Female, read-out: Brain
  concentration at 24 h: 3770 ng/g
[4]; brain, 50 mg/kg po qd 7 days, Male, read-out: Brain
  concentration at 24 h: 2080 ng/g
[4]; lung, 10 mg/kg po qd 7 days, Female, read-out: Lung
  concentration at 24 h: 1220 ng/g
[4]; lung, 10 mg/kg po qd 7 days, Male, read-out: Lung
  concentration at 24 h: 329 ng/g
[4]; lung, 50 mg/kg po qd 7 days, Female, read-out: Lung
  concentration at 24 h: 45000 ng/g
[4]; lung, 50 mg/kg po qd 7 days, Male, read-out: Lung
  concentration at 24 h: 9710 ng/g
[4]; plasma, 10 mg/kg po qd 7 days, Female, read-out: Plasma
  concentration at 24 h: 20.8 ng/mL
[4]; plasma, 10 mg/kg po qd 7 days, Male, read-out: Plasma
  concentration at 24 h: 10.6 ng/mL
[4]; plasma, 50 mg/kg po qd 7 days, Female, read-out: Plasma
  concentration at 24 h: 244 ng/mL
[4]; plasma, 50 mg/kg po qd 7 days, Male, read-out: Plasma
  concentration at 24 h: 149 ng/mL
CYP3A4-T
  IC50: 4890 nM
CYP3A4
  CYP induction based on enzyme activity: no CYP induction
[5]; 3 hr, individual animal
  Plasma Concentration: 181 ng/mL and 229 ng/mL and 273 ng/mL
[5]; 7 hr, individual animal
  Brain Tissue Concentration: 8280 ng/g and 5210 ng/g and 7400 ng/g
  Brain/Plasma (ratios): 31.2 and 26.4
  Plasma Concentration: 265 ng/mL and 197 ng/mL and 275 ng/mL
[5]; brain, 7 hr, individual animal, read-out: Brain Tissue Concentration
  concentration at 7 h: 7400 ng/g
[5]; brain, 7 hr, individual animal
  Kp at 7 h: 26.9
[5]; brain, 7 hr, mean n=3, read-out: Brain Tissue Concentration
  concentration at 7 h: 6960 ng/g
[5]; brain, 7 hr, mean n=3
  Kp at 7 h: 28.3
[5]; plasma, 3 hr, individual animal
  concentration at 3 h: 273 ng/mL
[5]; plasma, 3 hr, mean n=3
  concentration at 3 h: 228 ng/mL
[5]; plasma, 7 hr, individual animal, read-out: Plasma Concentration
  concentration at 7 h: 275 ng/mL
[5]; plasma, 7 hr, mean n=3, read-out: Plasma Concentration
  concentration at 7 h: 246 ng/mL
[6]
  CNS effects in functional observational battery: no adverse CNS effects
[7]; 100 mg/kg/day, attributed to myocardial degeneration
  mortality: one male was found dead on Day 13
[7]; beagle, in vivo, po, dog Day 1, 10 mg/kg/day, Female
  Cmax: 142 ng/mL
[7]; beagle, in vivo, po, dog Day 1, 10 mg/kg/day, Female, read-out: AUClast
  AUC(0-t): 2060 ng·h/mL
[7]; beagle, in vivo, po, dog Day 1, 10 mg/kg/day, Male
  Cmax: 166 ng/mL
[7]; beagle, in vivo, po, dog Day 1, 10 mg/kg/day, Male, read-out: AUClast
  AUC(0-t): 1650 ng·h/mL
[7]; beagle, in vivo, po, dog Day 1, 30 mg/kg/day, Female
  Cmax: 170 ng/mL
[7]; beagle, in vivo, po, dog Day 1, 30 mg/kg/day, Female, read-out: AUClast
  AUC(0-t): 1960 ng·h/mL
[7]; beagle, in vivo, po, dog Day 1, 30 mg/kg/day, Male
  Cmax: 317 ng/mL
[7]; beagle, in vivo, po, dog Day 1, 30 mg/kg/day, Male, read-out: AUClast
  AUC(0-t): 3790 ng·h/mL
[7]; beagle, in vivo, po, dog Day 1, 100 mg/kg/day, Female
  Cmax: 293 ng/mL
[7]; beagle, in vivo, po, dog Day 1, 100 mg/kg/day, Female, read-out: AUClast
  AUC(0-t): 4060 ng·h/mL
[7]; beagle, in vivo, po, dog Day 1, 100 mg/kg/day, Male
  Cmax: 367 ng/mL
[7]; beagle, in vivo, po, dog Day 1, 100 mg/kg/day, Male, read-out: AUClast
  AUC(0-t): 5190 ng·h/mL
[7]; both sexes, beagle, in vivo, oral, 4-week Dog toxicology
  NOAEL: 10 mg/kg
[7]; [8]
  Tmax: 4 h
  half-life: 8 h
[7]; dog
  NOEL for myocardial risk: 30 mg/kg
  HNSTD: 30 mg/kg
[7]; dog, estimated
  HNSTD: 30 mg/kg/day
[7]; female, beagle, in vivo, dog Day 28 mean, 10 mg/kg Compound 1 PO, F, Compound 2 as metabolite
  Cmax: 867 ng/mL
[7]; female, beagle, in vivo, dog Day 28 mean, 10 mg/kg Compound 1 PO, F, Compound 2 as metabolite, read-out: AUC0-24
  AUC(0-t): 6540 ng·h/mL
[7]; female, beagle, in vivo, dog Day 28 mean, 30 mg/kg Compound 1 PO, F, Compound 2 as metabolite
  Cmax: 508 ng/mL
[7]; female, beagle, in vivo, dog Day 28 mean, 30 mg/kg Compound 1 PO, F, Compound 2 as metabolite, read-out: AUC0-24
  AUC(0-t): 3490 ng·h/mL
[7]; from dog NOEL 30 mg/kg
  human equivalent dose (HED) of the NOEL for myocardial risk: 15 mg/kg
[7]; male, beagle, in vivo, dog Day 28 mean, 10 mg/kg Compound 1 PO, M, Compound 2 as metabolite
  Cmax: 578 ng/mL
[7]; male, beagle, in vivo, dog Day 28 mean, 10 mg/kg Compound 1 PO, M, Compound 2 as metabolite, read-out: AUC0-24
  AUC(0-t): 3880 ng·h/mL
[7]; male, beagle, in vivo, dog Day 28 mean, 30 mg/kg Compound 1 PO, M, Compound 2 as metabolite
  Cmax: 974 ng/mL
[7]; male, beagle, in vivo, dog Day 28 mean, 30 mg/kg Compound 1 PO, M, Compound 2 as metabolite, read-out: AUC0-24
  AUC(0-t): 7180 ng·h/mL
BT333 cells
  IC50: 3280 nM
BT112 cells
  IC50: 2040 nM
